Data from publication PMC9686568, “Novel Alligator Cathelicidin As-CATH8 Demonstrates Anti-Infective Activity against Clinically Relevant and Crocodylian Bacterial Pathogens” (Antibiotics, 2022).
Read-outs that look alike come from different tables or passages of the source.

Key:
[1] = cited from earlier work
From the text: It is well-known that HDPs can interact with multiple extracellular and intracellular targets to exert their antimicrobial and antibiofilm effects. […] Although it seems likely that compromising the integrity of the membrane is a key component of the killing mechanism of As-CATH8, this may not always be a fatal event and additional or alternative activities might also play a significant role. Two main elements support this idea: first, maxim ...

K. pneumoniae = experiment: MIC, broth microdilution in MHB; assay type: cell-based, K. pneumoniae KPLN49
Experimental: (§1) The following bacterial pathogens were used in this study: S. enterica subsp. enterica serovar Typhimurium ATCC 14028, E. coli O157:H7 [83], the clinical isolates S. aureus SAP0017 [84] and USA300 LAC [85], E. faecium #1-1 [85], A. baumannii Ab5075 [85] and E. cloacae 218R1 [85], as well as P. aeruginosa PAO1 [34], P. vulgaris HSC7200-T2 (Hancock Lab strain collection) and K. pneumoniae KPLN49 [85].
(§2) Overnight cultures were grown in LB at 37 °C with shaking at 250 rpm, except for E. faecium, which was grown in BHI medium.
(§3) The antimicrobial activity of the crocCATHs was evaluated with the broth microdilution method as described previously. MIC was defined as the first peptide or antibiotic concentration without visible bacterial growth. Reported values are the statistical mode of at least three independent experiments.

[2] = tested on: linearized plasmid pET28a; experiment: Agarose gel electrophoretic mobility shift assay (DNA binding)
Experimental: To investigate the DNA binding capacity of As-CATH8, vancomycin and polymyxin B, an agarose gel electrophoretic mobility shift assay was performed as previously described. Briefly, overnight cultures of E. coli BL21 Star cells harboring the pET28a plasmid were grown in LB supplemented with kanamycin (30 μg/mL). The pET28a plasmid was purified using the QIAprep Spin Miniprep Kit (QIAGEN Inc., Hilden, Germany) and linearized with the SmaI endonuclease (Thermofisher Scientific, Waltham, MA, USA). Linear pET28a was purified from an agarose gel using the QIAquick Gel Extraction Kit (QIAGEN Inc., Hilden, Germany).
Twofold decreasing amounts of As-CATH8 or antibiotics were incubated for 1 h at room temperature with 100 ng of linear pET28a in 10 μL of binding buffer (5% glycerol, 10 mM Tris-HCl pH 8.0, 1 mM EDTA, 1 mM DTT, 20 mM KCl and 50 μg/mL BSA). After this, 2 μL of 6× DNA Loading Dye (Thermofisher Scientific, Waltham, MA, USA) was added and the mixture was loaded onto a 1% agarose gel in TAE buffer containing SYBR Safe (Thermofisher Scientific, Waltham, MA, USA). The gel was run at 100 V for 1 h and the GeneRuler 1 kb DNA ladder (Thermofisher Scientific, Waltham, MA, USA) was used as a molecular weight marker. Finally, the gel was imaged on a ChemiDoc Touch Imaging System (BioRad Laboratories, Montreal, QC, Canada).

P. aeruginosa = experiment: MIC, broth microdilution in MHB; assay type: cell-based, P. aeruginosa PAO1
Experimental: as §1, §2, §3

A. baumannii = experiment: MIC, broth microdilution in MHB; assay type: cell-based, A. baumannii Ab5075
Experimental: as §1, §2, §3

P. vulgaris = assay type: cell-based, P. vulgaris HSC7200-T2; conditions: microdilution in MHB
Experimental: as §1, §2, §3

E. cloacae = assay type: cell-based, E. cloacae 218R1; conditions: E. cloacae, microdilution in MHB
Experimental: as §1, §2, §3

E. coli = assay type: cell-based, E. coli O157:H7; conditions: microdilution in MHB
Experimental: as §1, §2, §3

planktonic A. baumannii = experiment: Planktonic time-kill assay; assay type: cell-based; conditions: ~5 × 10^5 CFU/mL in MHB, at the MIC, 37 °C
Experimental: The bactericidal activity of As-CATH8 and antibiotics was evaluated against planktonic S. aureus SAP0017 and A. baumannii cells under similar conditions to those used in the antimicrobial assays. Bacteria were grown overnight in LB media and diluted to ~5 × 10^5 CFU/mL in MHB. […] Samples were taken at 0, 0.5, 1, 2 and 20 h after treatment and CFU counts determined by serial dilution and plating on LB agar.

[3] = tested on: A. baumannii cytoplasmic membrane; experiment: Membrane depolarization (DiSC3(5)) and permeabilization (PI) assay with CFU enumeration; assay type: cell-based; conditions: A. baumannii planktonic cells, 1 h treatment
Experimental: The cytoplasmic membrane depolarization and permeabilization activities of As-CATH8 compared to those of antibiotics (vancomycin or polymyxin B) were assessed against S. aureus SAP0017 and A. baumannii using the membrane-potential sensitive dye DiSC3(5) and the cell viability dye PI [36]. The membrane-permeabilizing peptide mastoparan was included as a positive control and water served as a negative (untreated) control.
Briefly, after growth in LB, mid-log phase bacteria were centrifuged and washed twice with 5 mM HEPES buffer supplemented with 20 mM glucose (HEPES-Gluc). Cell density was adjusted to ~10^7 CFU/mL in (HEPES-Gluc) supplemented with 0.1 M KCl. […] After incubation, 190 μL/well of the cultures were added to black opaque 96-well plates (Corning Inc.) and pre-treatment fluorescence was monitored every 2 min for a total of 10 min using a Synergy H1 Hybrid Multi-Mode Reader (BioTek, Winooski, VT, USA). […] After assessing that fluorescence values remained stable, bacteria were treated with 10 μL/well of peptide, antibiotic or water. Fluorescence was quantified 1 h after treatment under the same conditions and represented as a function of peptide concentration, subtracting the background of untreated cells.
To assess bacterial survival after treatment, supernatants from the fluorescence assays were serial diluted and plated for CFU enumeration. […]

S. Typhimurium = assay type: cell-based, S. enterica subsp. enterica serovar Typhimurium ATCC 14028; conditions: S. Typhimurium, microdilution in MHB
Experimental: as §1, §2, §3

A. baumannii biofilms = experiment: Biofilm-killing assay; assay type: cell-based; conditions: A. baumannii 24 h biofilms, 10% TSB + 0.1% glucose, 64 × MIC
Experimental: (§4) Biofilm-killing assays were set up like the biofilm inhibition assays previously described. […] Plates were incubated at 37 °C and bacterial biomass was scraped out of the wells with cotton swabs at 0, 0.5, 1, 2 and 20 h after treatment. Cotton tips were placed in 1 mL of LB and sonicated for 5 min, and bacterial numbers were determined by serial dilution and plating on LB agar.

S. aureus = experiment: MIC, broth microdilution in MHB; assay type: cell-based
Experimental: as §1, §2, §3

[4] = tested on: S. aureus SAP0017 cytoplasmic membrane; experiment: Membrane depolarization (DiSC3(5)) and permeabilization (PI) assay with CFU enumeration; assay type: cell-based; conditions: S. aureus planktonic cells, 1 h treatment
[5] = tested on: S. aureus SAP0017 biofilms; experiment: Biofilm-killing assay; assay type: cell-based; conditions: S. aureus 24 h biofilms, 64 × MIC
Experimental: as §4

E. faecium = experiment: MIC, broth microdilution in MHB; assay type: cell-based, E. faecium #1-1
Experimental: as §1, §2, §3

[6] = first concentration without visible growth, mode of at least three independent experiments

**Q.** With polymyxin B as the compound, how does the Net charge [1] read?
**A.** +5

**Q.** What about the MIC (K. pneumoniae; [6]) of the same compound?
**A.** 0.5 µM

**Q.** What about the MIC (K. pneumoniae; value in brackets of Table S4) of the same compound?
**A.** 0.6 µg/mL

**Q.** What about the “Capacity for binding to DNA, result in words” value [2] of the same compound?
**A.** weak

**Q.** And the MIC (P. aeruginosa; [6])?
**A.** 0.5 µM

**Q.** What about the MIC (P. aeruginosa; value in brackets of Table S4) of the same compound?
**A.** 0.6 µg/mL

**Q.** What about the MIC (A. baumannii; [6]) of the same compound?
**A.** 0.5 µM

**Q.** And the MIC (A. baumannii; value in brackets of Table S4)?
**A.** 0.6 µg/mL

**Q.** What about the MIC (P. vulgaris; [6]) of the same compound?
**A.** > 64 µM

**Q.** What about the MIC (P. vulgaris; value in brackets of Table S4) of the same compound?
**A.** > 77 µg/mL

**Q.** And the MIC (E. cloacae; [6])?
**A.** 0.5 µM

**Q.** What about the MIC (E. cloacae; value in brackets of Table S4) of the same compound?
**A.** 0.6 µg/mL

**Q.** And the MIC (E. coli; [6])?
**A.** 0.5 µM

**Q.** And the MIC (E. coli; value in brackets of Table S4)?
**A.** 0.6 µg/mL

**Q.** What about the “Time to complete killing of planktonic cells” value (planktonic A. baumannii) of the same compound?
**A.** up to 20 h

**Q.** What about the “Membrane depolarization (DiSC3(5) fluorescence) and permeabilization (PI fluorescence), result in words” value [3] of the same compound?
**A.** almost no effect

**Q.** And the MIC (S. Typhimurium; [6])?
**A.** 1 µM

**Q.** What about the MIC (S. Typhimurium; value in brackets of Table S4) of the same compound?
**A.** 1.2 µg/mL

**Q.** What about the “Time to complete eradication of biofilms” value (A. baumannii biofilms) of the same compound?
**A.** 20 h

**Q.** Which results are given for CN[C@H](CC(C)C)C(=O)N[C@H]1C(=O)N[C@@H](CC(N)=O)C(=O)N[C@H]2C(=O)N[C@H]3C(=O)N[C@H](C(=O)N[C@H](C(=O)O)c4cc(O)cc(O)c4-c4cc3ccc4O)[C@H](O)c3ccc(c(Cl)c3)Oc3cc2cc(c3O[C@@H]2O[C@H](CO)[C@@H](O)[C@H](O)[C@H]2O[C@H]2C[C@](C)(N)[C@H](O)[C@H](C)O2)Oc2ccc(cc2Cl)[C@H]1O [Vancomycin, vancomycin]?
**A.** MIC (S. aureus; Staphylococcus aureus, first concentration without visible growth, mode of at least three independent experiments): 0.5 µM; MIC (S. aureus; Staphylococcus aureus, value in brackets of Table S4): 0.7 µg/mL; MIC (S. aureus; [6]): 0.5 µM; Net charge [1]: +1; Capacity for binding to DNA, result in words [2]: no; Membrane depolarization (DiSC3(5) fluorescence) and permeabilization (PI fluorescence), result in words [4]: almost no effect; Effect on biofilms at 2 h, result in words ([5]; 2 h time point): modest effect; Effect on biofilms after 20 h, result in words ([5]; 20 h of treatment): potent activity; MIC (E. faecium; Enterococcus faecium, first concentration without visible growth, mode of at least three independent experiments): > 64 µM; MIC (E. faecium; Enterococcus faecium, value in brackets of Table S4): > 93 µg/mL; MIC (E. faecium; [6]): > 64 µM
